# Target: T1, human PDE4B1 (Homo sapiens, UniProt Q07343)
# T1 construct: host or cells: Sf9 cells
# Assay: cAMP HTRF assay to determine the activity of hPDE4B1
# Assay type: biochemical
# Conditions: test substrate concentration of 1 μM, read-out: Inhibition of PDE4B, Inhibition in %
# Protocol: cAMP HTRF® Assay to Determine the Activity of hPDE4B1
# The inhibiting effect of the compounds on the enzyme activity of human PDE4B1 was measured by the quantification of 5′-adenosine monophosphate (5′-AMP), which is formed from 3′,5′-cyclic adenosine monophosphate (cAMP). Human recombinant enzyme, expressed in Sf9 cells, and the HTRF (homogeneous time-resolved fluorescence) detection method were used in the assay.
# The test compound or water (control) was mixed with the human recombinant PDE4B1 enzyme (4.8 U) in a buffer consisting of 44.4 mM tris-HCl, 5.28 mM MgCl2, 2.64 mM DTT and 0.044% Tween 20 (pH 7.8). After adding the cAMP enzyme substrate (final concentration 40 nM), the mixture was incubated for 30 minutes at room temperature. Then a fluorescence acceptor (Dye2 marked with cAMP), a fluorescence donor (anti-cAMP antibody marked with a europium cryptate) and the non-specific phosphodiesterase inhibitor IBMX (3-isobutyl-1-methylxanthine; final concentration 1 mM) were added. After 60 minutes the fluorescence transfer, which correlates with the amount of remaining cAMP, was measured with a microplate reader (Rubystar, BMG) at λex=337 nm, λem=620 nm and λem=665 nm. The enzyme activity was calculated from the quotient formed from the measured signal at 665 nm and that at 620 nm. The result was expressed as the percentage inhibition of enzyme activity of the control (without PDE4 inhibitor). The enzyme was omitted for measurement of the basal control. IC50 values (IC50=concentration causing a half-maximal inhibition of control specific activity) were derived from dose response measurements with eight different concentrations (n=2; N=1-3).
# Literature: N. Saldou et al., Comparison of recombinant human PDE4 isoforms: interaction with substrate and inhibitors, Cell. Signal. Vol. 10, No. 6, 427-440, 1998
# T1 sequence (Q07343 whole entry): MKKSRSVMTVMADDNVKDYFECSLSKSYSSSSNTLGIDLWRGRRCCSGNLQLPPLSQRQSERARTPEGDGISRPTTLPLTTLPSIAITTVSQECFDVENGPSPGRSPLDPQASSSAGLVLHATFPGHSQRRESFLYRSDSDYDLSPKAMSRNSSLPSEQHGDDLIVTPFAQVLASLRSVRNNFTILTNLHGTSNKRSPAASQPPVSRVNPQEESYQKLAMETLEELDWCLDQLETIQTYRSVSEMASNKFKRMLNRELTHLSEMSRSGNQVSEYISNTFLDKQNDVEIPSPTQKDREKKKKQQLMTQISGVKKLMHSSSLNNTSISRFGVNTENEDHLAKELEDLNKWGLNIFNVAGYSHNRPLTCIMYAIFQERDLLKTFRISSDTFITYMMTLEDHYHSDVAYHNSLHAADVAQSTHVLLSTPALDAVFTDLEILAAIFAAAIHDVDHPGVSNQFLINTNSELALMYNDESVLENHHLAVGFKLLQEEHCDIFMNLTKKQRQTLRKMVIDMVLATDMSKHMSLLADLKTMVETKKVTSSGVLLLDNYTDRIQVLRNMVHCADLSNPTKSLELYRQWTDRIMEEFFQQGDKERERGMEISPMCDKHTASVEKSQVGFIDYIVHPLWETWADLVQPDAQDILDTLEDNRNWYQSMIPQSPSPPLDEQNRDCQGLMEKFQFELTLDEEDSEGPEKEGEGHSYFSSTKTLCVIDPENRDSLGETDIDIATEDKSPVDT
row,Compound,inhibition at 1 µM
1,"CC(O)c1nn(-c2ncc(-c3cc(C#N)ccc3F)cn2)c2cc(C(=O)N3CCOCC3)ccc12 (stereo not shown) [Compound No. 22, 4-Fluoro-3-(2-(3-(1-hydroxyethyl)-6-(morpholine-4-carbonyl)-1H-indazol-1-yl)pyrimidin-5-yl)benzonitrile]",112%
2,"CCN(CC)C(=O)c1cc2c(cn1)c(C1CC1)nn2-c1ncc(-c2ccccc2F)cn1 [compound 39, 3-Cyclopropyl-N,N-diethyl-1-(5-(2-fluorophenyl)pyrimidin-2-yl)-1H-pyrazolo[4,3-c]pyridine-6-carboxamide]",67%
3,"O=C(NC1CC1)c1cc2c(cn1)c(C1CC1)nn2-c1ncc(-c2ccccc2F)cn1 [compound 36, N,3-Dicyclopropyl-1-(5-(2-fluorophenyl)pyrimidin-2-yl)-1H-pyrazolo[4,3-c]pyridine-6-carboxamide]",81%
4,"O=C(NCCn1cncn1)c1cc2c(cn1)c(C1CC1)nn2-c1ncc(-c2ccccc2F)cn1 [compound 47, N-(2-(1H-1,2,4-Triazol-1-yl)ethyl)-3-cyclopropyl-1-(5-(2-fluorophenyl)pyrimidin-2-yl)-1H-pyrazolo[4,3-c]pyridine-6-carboxamide]",67%
5,"CS(=O)(=O)c1nn(-c2ncc(-c3ccccc3)cn2)c2cc(C(=O)N3CCOCC3)ccc12 [Compound No. 12, (3-(Methylsulfonyl)-1-(5-phenylpyrimidin-2-yl)-1H-indazol-6-yl)(morpholino)methanone]",62%
6,"O=C(c1ccc2c(C3CC3)nn(-c3ncc(-c4ccccc4F)cn3)c2c1)N1CCOCC1 [Compound No. 4, (3-Cyclopropyl-1-(5-(2-fluorophenyl)pyrimidin-2-yl)-1H-indazol-6-yl)(morpholino)methanone]",106%
7,"CS(=O)(=O)c1nn(-c2ncc(-c3ccccc3F)cn2)c2cc(C(=O)N3CCOCC3)ccc12 [Compound No. 5, (1-(5-(2-Fluorophenyl)pyrimidin-2-yl)-3-(methylsulfonyl)-1H-indazol-6-yl)(morpholino)methanone]",96%
8,"CC1COCC(C)N1C(=O)c1cc2c(cn1)c(C1CC1)nn2-c1ncc(-c2ccccc2F)cn1 (stereo not shown) [compound 49, (3-Cyclopropyl-1-(5-(2-fluorophenyl)pyrimidin-2-yl)-1H-pyrazolo[4,3-c]pyridin-6-yl)(3,5-dimethylmorpholino)methanone]",54%
9,"NC(=O)c1nn(-c2ncc(-c3ccccc3F)cn2)c2cc(C(=O)N3CCOCC3)ccc12 [Compound No. 3, 1-(5-(2-Fluorophenyl)pyrimidin-2-yl)-6-(morpholine-4-carbonyl)-1H-indazole-3-carboxamide]",83%
10,"Cc1cccc(-c2cnc(-n3nc(S(C)(=O)=O)c4ccc(C(=O)N5CCOCC5)cc43)nc2)c1 [Compound No. 26, (3-(Methylsulfonyl)-1-(5-(m-tolyl)pyrimidin-2-yl)-1H-indazol-6-yl)(morpholino)methanone]",91%
11,"CS(=O)(=O)c1nn(-c2ncc(-c3cc(C#N)ccc3F)cn2)c2cc(C(=O)N3CCOCC3)ccc12 [Compound No. 28, 4-Fluoro-3-(2-(3-(methylsulfonyl)-6-(morpholine-4-carbonyl)-1H-indazol-1-yl)pyrimidin-5-yl)benzonitrile]",86%
12,"O=C(c1cc2c(cn1)c(C1CC1)nn2-c1ncc(-c2ccccc2F)cn1)N1CCC1 [compound 35, Azetidin-1-yl(3-cyclopropyl-1-(5-(2-fluorophenyl)pyrimidin-2-yl)-1H-pyrazolo[4,3-c]pyridin-6-yl)methanone]",59%
13,"Cc1cccc(-c2cnc(-n3nc([S+](C)[O-])c4ccc(C(=O)N5CCOCC5)cc43)nc2)c1 (stereo not shown) [Compound No. 23, (3-(Methylsulfinyl)-1-(5-(m-tolyl)pyrimidin-2-yl)-1H-indazol-6-yl)(morpholino)methanone]",101%
